Measured values: ChEMBL document CHEMBL4808205, “Discovery of TAK-041: a Potent and Selective GPR139 Agonist Explored for the Treatment of Negative Symptoms Associated with Schizophrenia” (J Med Chem, 2021)

Tests used:
[1] = Free drug concentration in BALB/c mouse brain; format: ADME, tissue-based; details: in vivo
[2] = Volume of distribution in rat at 1 mg/kg, iv or 2 mg/kg, po; format: ADME, organism-based; details: in vivo
[3] = Bioavailability in rat at 1 mg/kg, iv; format: ADME, organism-based; details: in vivo, po 2 mg/kg vs iv 1 mg/kg
[4] = Cmax in rat at 1 mg/kg, iv or 2 mg/kg, po; format: ADME, organism-based; set-up: dose 2 mg/kg; details: in vivo
[5] = Oral bioavailability in mouse at 30 mg/kg after 1 hr; format: ADME, organism-based; details: in vivo
MDR1 = experiment: Apparent permeability in dog MDCK-MDR1 cells; format: ADME, cell-based, Canis lupus familiaris
MDR1 (human) = experiment: Permeability across apical to basolateral side in pig LLC-PK1 cells expressing human MDR1; format: ADME, cell-based, Sus scrofa; details: read-out: permeability
[6] = Lipophilicity, logD of compound; format: physicochemical; details: octanol/water

SMILES: COc1cccc2nnn(CC(=O)N[C@@H](C)c3ccc(C)cc3)c(=O)c12
- Drug uptake(free) [1]: < 10 nM
- Vd [2]: 0.4 L/kg
- bioavailability [3]: 50%
- Cmax [4]: 541 ng/mL

SMILES: C[C@H](NC(=O)Cn1nnc2ccccc2c1=O)c1ccc(C(F)(F)F)cc1
- Drug uptake(free) [1]: < 10 nM
- Vd [2]: 1.4 L/kg
- bioavailability [3]: > 100%
- Cmax [4]: 644 ng/mL

SMILES: COc1ccc2nnn(CC(=O)N[C@@H](C)c3ccc(C)cc3)c(=O)c2c1
- Vd [2]: 0.6 L/kg
- bioavailability [3]: 2%
- Cmax [4]: 15 ng/mL

SMILES: Cc1ccc([C@H](C)NC(=O)Cn2nnc3ccccc3c2=O)cc1
- Vd [2]: 2.1 L/kg
- bioavailability [3]: 27%
- bioavailability [5]: 30%
- Cmax [4]: 94 ng/mL

SMILES: O=C(Cn1nnc2ccccc2c1=O)NCCc1ccc(Cl)cc1
- Papp (MDR1): 9.1 ×10⁻⁶ cm/s

SMILES: C[C@H](NC(=O)Cn1nnc2ccccc2c1=O)c1ccc(OC(F)(F)F)cc1 [ZELATRIAZIN]
- Drug uptake(free) [1]: < 10 nM
- Vd [2]: 1 L/kg
- bioavailability [3]: 100%
- Papp A→B (MDR1 (human)): 18.3 ×10⁻⁶ cm/s
- logD [6]: 2.4
- Cmax [4]: 961 ng/mL
